The values that follow come from patent US10258561B2, “Cosmetic composition containing a brown alga extract, a yeast extract and ascorbic acid” (LVMH RECHERCHE, priority 2013, dated 2019).

The assay deals with synthesis of procollagen I by normal human fibroblasts (NHF). The assay can be described thus: Synthesis of type I procollagen by aged normal human fibroblasts, ELISA on culture supernatants. The class given is cell-based. As to conditions: active agents alone. An excerpt:
The influence of the extracts constituting the combination of the invention on the synthesis of procollagen I by normal human fibroblasts (NHF) is studied. Procollagen is a precursor form of collagen secreted in the extracellular medium where the ends are cut in order to result in the collagen subunit. The combining of these collagen molecules will subsequently create the collagen fibers. 1. Cell Model • Type: Normal human fibroblasts (NHF), aged by passages in culture (20th passage). • Culturing conditions: 37° C., 5% CO2. • Culture medium: (Invitrogen 21090-22) supplemented with L-glutamine 2 mM, penicillin 50 UI/ml-streptomycin 50 μg/ml, 10% FCS (Biowest S1810). • Test medium: […]. The active agents are dissolved in the culture medium at the concentration specified in the following table. The synthesis of type I procollagen by these cells was evaluated by the ELISA technique from the culture supernatants of aged fibroblasts. The NHFs are cultured in a 96-well microplate at the rate of 7500 cells/well for 24 hours. At 80% confluence, the medium is replaced with the test medium containing the active agents to be tested or the references. The cells are incubated for 72 hours. The culture supernatants are subsequently recovered and stored at −20° C. while awaiting assaying. […] The amounts of procollagen I are expressed as ng/mg of protein. […]

`O=C1O[C@H]([C@@H](O)CO)C(O)=C1O` [Vitamin C, Ascorbic acid]: the “Procoll. I (ng/mg of prot)” value (aged NHF (20th passage), 72 hours, untreated control 1439 ± 161) was 2431 ± 55 ng/mg of prot. For the same molecule, the Variation result (vs untreated control) was “+67%”.
